The values that follow come from patent US8865775B2, “Anti-inflammatory agent and cancer-preventive agent comprising canolol or prodrug thereof and pharmaceutical, cosmetic and food comprising the same” (priority 2004, dated 2014).

Each structure is given as a SMILES string.

Data set [1] deals with Mongolian gerbils infected with Helicobacter pylori ATCC 43504. Put plainly: Suppression of gastritis in Mongolian gerbils infected with H. pylori and given MNU (pathology of excised stomach). The class given is in vivo. The following applies: diet containing 0.1% canolol for 12 weeks; vs diet without canolol. The source says:
(§1) The six-week old Mongolian gerbils were given drinking water with 10 ppm of MNU (a carcinogen N-methylnitrosourea) for one week followed by oral infection with Helicobacter pylori ATCC 43504 strain, or were orally infected with 1×10^8 CFU of H. pylori and 10 ppm of MNU were then given for one week. They were divided into two groups: one was fed with AIN-93G diet for mice containing 0.1% of canolol (“canolol-fed group”); the other was fed with the same diet compositions without canolol. The experiment was continued for up to 52 weeks (X. Cao et al, Jpn. J. Cancer Res., 93, 1293-1298 (2002), N. Shimizu, et al, Cancer Res., 60, 1512-1514 (2000)). Ten gerbils per group were examined.

The next data set relates to Helicobacter pylori. Put plainly: H. pylori count in mid-stomach tissues of infected gerbils. The class given is in vivo. The settings on record: after 12 weeks.
From the text: as §1
(§2) 8-OHdG is one of the markers of inflammatory disorders that are generated as a result from a reaction of reactive oxygen species with DNA, said reactive oxygen species being derived from inflammatory cells in vivo. The amount of 8-OHdG produced was studied under similar conditions as Example (1) using a conventional fluorescent antibody staining method with the anti-8-OHdG antibody against excised gastric specimens of each group after 12 weeks.

Data set [2] concerns Salmonella typhimurium TA102. Put plainly: Suppression of ONOO- induced mutant colony formation (modified Ames medium). The class given is cell-based. The following applies: 8 μM canolol; ONOO- at or above 4 μM. Here is the method: 1×10^8 CFU of Salmonella typhimurium TA102 was taken into a beaker under sterile condition, then ONOO^− was continuously infused under stirring to make a predetermined concentration of ONOO^− between 1-800 μM. (FIG. 7A). An aliquot of S. typhimurium at each time point was removed to a petri dish containing modified Ames medium which permits selective growth of only mutant strains, and was cultured. […] The mutant colonies were formed progressively at or above 4 μM of ONOO^−, while they were not formed with addition of 8 μM canolol.

Data set [3] concerns 8-oxodeoxyguanosine (8-OHdG). The experiment in a line: 8-OHdG production in gastric specimens, fluorescent antibody staining. The class given is in vivo, Mongolian gerbils. The following applies: after 12 weeks.
From the text: as §1, §2

A further data set has as its system cycloxygenase-2 (COX-2). Put plainly: Induction of COX-2 in gastric lesions infected with H. pylori, immunostaining. The class given is in vivo, Mongolian gerbils. The following applies: immunostaining quantification, 12 weeks, n = 10.
From the text: as §1
(§3) The expression levels of both enzymes were quantified by means of enzyme antibody using the specimens of Example (1) prepared 12 weeks after administration according to Example (2) . Both COX-2 and iNOS induced during inflammation are typical enzymes to onset an inflammation reaction. Namely, COX-2 produces prostanoid inflammatory mediators such as prostaglandin E2, and iNOS produces nitric oxide (NO), where these mediators and NO evokes inflammation. Both superoxide (O2^−) and NO produced at the site of inflammation immediately react with each other and form more reactive peroxynitrite (ONOO^−) (described later).

The test system of data set [4] is NO production from macrophages. Put plainly: Suppression of NO production from LPS + IFN-γ treated peritoneal macrophages (Gries method). The following applies: LPS 1 μg/ml + IFN-γ 0.1 μg/ml, 24 hours. The class given is cell-based, BALB/c mice. Here is the method:
Next, the inflammatorily exuded peritoneal macrophages were treated with bacterial (E. coli) lipopolysaccharide (LPS) (1 μg/ml) and interferon-γ (0.1 μg/ml) in vitro, then the amount of NO, the inflammatory mediator released from the macrophages, was quantified as NO3^−+NO2^− by a conventional method (Gries method) [Stuehr D J, et al, J. Exp. Med., 169, 1543-55 (1989)] (FIG. 4). That is, to the 6-week old female BALB/c mice (SPF), 10% proteose peptone (1 ml) was injected intraperitoneally. The exuded peritoneal macrophages were collected by peritoneal puncture using a needled syringe, centrifuged in the presence of 10% heat-inactivated fetal calf serum and washed. The peritoneal macrophages (1×10^5/well), LPS (1 μg/ml), interferon-γ (IFN-γ) (0.1 μg/ml) and variable doses of canolol (5, 12.5, 25, 50, 100 μM) were plated in the plastic microplate (96-well) (Sumitomo Bakelite, Cat. #MS-8096F), and allowed to incubate for 24 hours at 37° C., under 5% CO2 and 95% air. Then, nitrite and nitrate ions in the supernatant were quantified by the Gries method. The culture medium used for the macrophages was RPMI-1640 containing 10% of heat-inactivated fetal calf serum. As control groups, LPS alone, and LPS+IFN-γ without canolol were used. The vertical axis of FIG. 4 indicates the total amount of nitrate and nitrite ions.

The test system of data set [5] is stomach tissues of gerbils infected with H. pylori. The experiment in a line: Infiltration of neutrophils and hyperplasia in stomach tissues, hematoxylin-eosin staining. Format: in vivo, Mongolian gerbils. The settings on record: 12 weeks.
From the text: as §1
Specimens of Example (1) were prepared 12 weeks after administration. Stomach specimens were prepared and examined under microscope after conventional hematoxylin-eosin staining.

The subject of data set [6] is gastric carcinoma in Mongolian gerbils. Put plainly: Suppression of gastric carcinogenesis in gerbils infected with H. pylori and treated with MNU. The class given is in vivo. An excerpt:
They were divided into two groups: one was fed with AIN-93G diet for mice containing 0.1% of canolol (“canolol-fed group”); the other was fed with the same diet compositions without canolol. […] Ten gerbils per group were examined.
Thin slices obtained from the paraffin blocks were examined with HE (hematoxyline eosin) staining under microscope.

Data set [7] deals with human embryonic kidney epithelial cells HEK 293. Put plainly: Neutralization of peroxynitrite (SIN-1) toxicity to cultured cells, MTT method. The class given is cell-based. The settings on record: SIN-1 100 μM, HEK 293, MTT. The source says:
(§4) At the inflammatory site, peroxynitrite (ONOO^−) is excessively generated as a result of inflammatory reaction, and toxic effect thereof to living cells is one of the cause of pathogenesis. It was anticipated that canolol would exert protective effects against said toxicity of ONOO^− to cultured cells.

Data set [8] relates to inducible form of NO synthase (iNOS). The experiment in a line: Induction of iNOS in gastric lesions infected with H. pylori, immunostaining. Format: in vivo, Mongolian gerbils. The settings on record: immunostaining quantification, 12 weeks, n = 10.
From the text: as §1, §3

The test system of another data set is peritoneal macrophages. The experiment in a line: Effect on survival of macrophages. The class given is cell-based, BALB/c mice.
A short description of data set [9]: Half-life in the culture medium. Format: physicochemical.
From the text: as §4

The mark [10] stands for this setting: mid-stomach tissue, 0.1% canolol diet.
Where [11] appears, read: Hp + MNU, number of gerbils, after 57 weeks.

Take `C=Cc1cc(OC)c(O)c(OC)c1` [canolol, 4-vinyl-2,6-dimethoxyphenol]: the “inflammation of gastric epithelium” value in [1] is reported as “markedly suppressed”. In the data set on Helicobacter pylori (in vivo, gerbil stomach), the antibacterial activity entry is on record as “did not show any antibacterial activity”. In the data set on Helicobacter pylori (setting [10]), the “H. pylori count (CFU)” value is listed as 4.42 ± 0.2 CFU. Further, the “mutant colony formation by ONOO-” value in data set [2] is on record as “not formed”. In addition, the “8-OHdG production in vivo” value in data set [3] is “exerted suppressive activity”. Further, the “Amount of 8-OHdG (ratio)” value in [3] (setting [10]) is listed as 19.6 ± 5.5 ratio. Moreover, in the data set on cycloxygenase-2 (COX-2), the “COX-2, Gastric antrum” value turned out to be 0.9 ± 0.2 and the “COX-2, Gastric corpus” value is recorded as 0.6 ± 0.2. In addition, the effective concentration in data set [4] was 10 to 100 µM. Moreover, the “gastritis in both gastric antrum and corpus” value in [5] is listed as “significantly suppressed”. In [5] (n = 10), the “Hyperplasia, Gastric antrum” value is 1.2 ± 0.6; the “Hyperplasia, Gastric corpus” value was 0.7 ± 0.2; the “Neutrophil infiltration, Gastric antrum” value is 1.2 ± 0.4; the “Neutrophil infiltration, Gastric corpus” value worked out at 0.9 ± 0.2. The “suppression of the cancer incidence” value in data set [6] (0.1% canolol vs without canolol) was 64%. This compound displayed a cancer incidence in [6] (gerbils fed with 0.1% canolol, around 57 weeks) of 15%. Moreover, the “concentration that significantly neutralized the toxicity of ONOO-” value in data set [7] lay within 12.5 to 50 µM. Moreover, in data set [8], the “iNOS, Gastric antrum” value amounted to 0.9 ± 0.1 and the “iNOS, Gastric corpus” value was determined as 0.5 ± 0.1. In the data set on peritoneal macrophages (at 100 μM), the “toxicity to macrophages (survival)” value is reported as “essentially non-toxic”. In addition, in the data set with peritoneal macrophages (macrophages), the cytotoxic concentration was not below 800 µM.
Take `Cc1cc(C(C)(C)C)c(O)c(C(C)(C)C)c1` [BHT, 2,6-di-tert-butyl-4-methylphenol]: in data set [6] (Hp + MNU, after 57 weeks), the “Incidence of carcinoma, Frequency (%)” value is reported as “(39.4) %” and the “Incidence of carcinoma, Frequency (gerbils with carcinoma/group)” value is 13/33. Also, in data set [6] (setting [11]), the “Incidence of carcinoma, Differentiation” value came to 11 and the “Incidence of carcinoma, Undifferentiation” value is recorded as 2. Moreover, the “Rate of suppression (%)” value in [6] (Hp + MNU, vs group I (Hp + MNU), after 57 weeks) came out at 6.5%.
`Cl.N=c1c[n+](N2CCOCC2)[n-]o1` [SIN-1, 3-(4-morpholinyl) sydnonimine HCl] gave a half-life in data set [9] of 6 h.

By half-life is commonly meant the time needed for the level to fall by half in the phase considered. Low values mean fast loss, high ones slow loss.
